Measurements reported in patent publication US11718628B2, “SREBP inhibitors comprising a 6-membered central ring” (Capulus Therapeutics, LLC, priority 2018, dated 2023).

Tests used:
HepG2 cells = assay: Gene expression of HepG2 cells (quantitative PCR); assay type: cell-based; set-up: key to LSS gene expression / MVK gene expression / SREBP1 gene expression / SREBP2 gene expression / SCAP gene expression / SCD gene expression / MVD gene expression / ACACA gene expression / ACACB gene expression / ACLY gene expression / ACSS1 gene expression / ACSS2 gene expression / ELOVL6 gene expression / FASN gene expression / HMGCR gene expression: relative expression vs mock/vehicle (ΔΔCT, β-actin normalized); conditions: 500 nM, 48 hrs
Description: Gene Expression: The effect of selected compounds described herein on the gene expression of HepG2 cells was evaluated. HepG2 cells (P2) were seeded in 24 well plate (80,000 cells/well) for RNA extraction and in a 96 well plate (10,000 cells/well) for Cell Titer Glow (CTG). The media used was DMEM and contained 10% FBS. Each compound was evaluated at […] for 48 hours. Two biological replicates per experimental group were evaluated for RNA. For gene analysis, RNA was harvested with RNEasy kit and 20-100 ng used to synthesize cDNA with random primers. Quantitative PCR was performed on 1 pg to 100 ng cDNA for the following genes: ACACA, ACLY, FASN, LSS, PNPLA3. Gene expression levels were normalized with housekeeping gene, β-Actin, and relative expression levels determined using ΔΔCT method comparing treated to mock or vehicle treated cells as a baseline. “Total” gene expression refers to the average of the values of the 5 genes listed above.
The effect of Compound Z-725 on expression of the genes ACACA, ACACB, ACLY, ACSS1, ACSS2, ELOVL6, FASN, HMGCR, LSS, MVK, PNPLA3, SREBP1, SREBP2, SCAP, SCD, and MVD was evaluated, following the procedure described in Example 52.

[1] = In vivo pharmacokinetic properties in rats (IV and PO); set-up: species or system male Sprague Dawley rats
Method in brief: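 Male Sprague Dawley rats received 2.00 mg/kg IV via the tail vein, with plasma sampled from a cannulated jugular vein from 0.083 to 24 h. Oral dosing was 10 mg/kg in rats or C57BL/6J mice, sampled at 0.25-24 h by jugular cannula (rats) or retro-orbital plexus (mice).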

In the case of `CC(C)(C)c1cc(-c2cncc(-c3ccc(C(=O)N4CCC(O)CC4)cc3Cl)c2)ccn1` [Compound Z-725], the ACACA gene expression (HepG2 cells) is reported as 0.4399, the ACACB gene expression (HepG2 cells) is reported as 0.5472 and the ACLY gene expression (HepG2 cells) is reported as 0.3505. It also gave an ACSS1 gene expression (HepG2 cells) of 0.2838, an ACSS2 gene expression (HepG2 cells) of 0.4792 and an ELOVL6 gene expression (HepG2 cells) of 0.4432. The FASN gene expression (HepG2 cells) was 0.2957, the HMGCR gene expression (HepG2 cells) was 0.09282 and the LSS gene expression (HepG2 cells) was 0.2412. The MVD gene expression (HepG2 cells) was 0.1984, the MVK gene expression (HepG2 cells) was 0.05926 and the PNPLA3 gene expression (HepG2 cells) was 0.09989. The SCAP gene expression (HepG2 cells) was 1.312, the SCD gene expression (HepG2 cells) was 0.2009 and the SREBP1 gene expression (HepG2 cells) was 0.5489. For the same compound, the SREBP2 gene expression (HepG2 cells) was 0.786, the “Intravenous Delivery (IV) CL” value ([1]; IV, 2 mg/kg) was 30.1 mL/min/kg and the “Intravenous Delivery (IV) T1/2” value ([1]; IV, 2 mg/kg) was 1.53 h. For the same compound, the “Intravenous Delivery (IV) Vd” value ([1]; IV, 2 mg/kg) was 4.02 L/kg, the “% F (Bioavailability of oral delivery)” value ([1]; PO 10 mg/kg vs IV 2 mg/kg) was 24% and the “Oral Administration (PO) AUC0-last” value ([1]; PO, 10 mg/kg) was 1307. The “Oral Administration (PO) T1/2” value ([1]; PO, 10 mg/kg) was 5.1 h and the “Oral Administration (PO) Tmax” value ([1]; PO, 10 mg/kg) was 1.67 h.
